Measured values reported in article PMC10650850, “Discovery, Structure–Activity Relationship and In Vitro Anticancer Activity of Small-Molecule Inhibitors of the Protein–Protein Interactions between AF9/ENL and AF4 or DOT1L” (Cancers, 2023).
“Also recorded” adds a separate entry of the source. Values belong to the molecule of their own block, whether it stands above or below them. No end group written: not given here. *: point of attachment. Biotin = O=C1N[C@H]2[C@H](CS[C@H]2CCCCC(=O)*)N1; Ahx = NCCCCCC(=O)O

Tests used:
[1] = biological target: T1, ENL-AF4 (Homo sapiens, UniProt Q03111); experiment: AlphaLisa assay, ENL-AF4 interaction; format: binding; details: ENL AHD, AF4 peptide
T1 construct: ENL AHD domain (489–559); made in house; host or cells: E. coli BL21(DE3)
T1 sequence (Q03111 489-559): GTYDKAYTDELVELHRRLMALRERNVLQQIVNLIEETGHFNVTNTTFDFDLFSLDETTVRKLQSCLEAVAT
Experimental: (§1) Transcription cofactor AF4, which is the most frequent (~35%) fusion protein in MLL1-r leukemia, is another binding partner of AF9/ENL [35, 36, 37]. The AF9/ENL-AF4 interactions are essential for the formation of SEC, which causes aberrant gene expression in MLL-r leukemia and other AMLs. Using our previously developed AlphaLisa assays, selected compounds were tested for their ability to inhibit the PPIs between AF9 or ENL and AF4.
(§2) The cDNA for the human AF9 AHD domain (475–568) and ENL AHD domain (489–559) was synthesized (by Genscript, Piscataway, NJ, USA) and inserted into the pMAL c5X expression plasmid. The DOT1L peptide (Biotin-AHX-[…]) and AF4 peptide (Biotin-AHX-[…]) for the Alpha assay were purchased from Genscript.
(§3) Alpha assays were developed in our previous publication, using a Perkin-Elmer AlphaLisa anti-MBP kit, which contains streptavidin donor beads and anti-MBP acceptor beads. Briefly, the assay was performed using a MBP-protein (5 nM), a biotinylated peptide (40 nM), and increasing concentrations of a compound in 25 µL buffer (PBS with 0.5% BSA, pH 7.5) in 384-well plates according to the manufacturer’s protocol and measured with a Tecan SPARK microplate reader. Data were imported into Prism (version 5.0), and IC50 values from 3 independent experiments with standard deviation were obtained by using a standard dose-response curve fitting.

[2] = tested on: HoxA9, Meis1 and Myc; experiment: RT-qPCR of MLL target genes in Molm-13 cells; format: cell-based; details: 1 and 5 µM, 4 days
Text: The major function of the SEC is to promote transcription elongation for its bound genes. Because of the high affinity of the PPIs between AF9/ENL and AF4, onco-MLL (e.g., MLL-AF4 or MLL-AF9/-ENL) recruits SEC to MLL target genes, facilitates their expression, and eventually causes leukemia initiation. Next, we investigated whether selected inhibitors of these PPIs can inhibit the expression of HoxA9, Meis1 and Myc, which are MLL target genes and their high expression is characteristic of MLL-r leukemia. In addition, high expression of Myc is also observed in a broad range of AMLs and other cancers and is considered a driving factor for oncogenesis. To this end, RNAs from the control and compound-treated Molm-13 cells (harboring MLL-AF9) were extracted and subjected to quantitative PCR. […] RNA extraction and RT-qPCR were performed following our previous method. 10^5 cells/mL were incubated with a compound for 4 days and the RNA was extracted using an RNeasy mini kit (#74104, Qiagen, Germantown, MD, USA). 100–1000 ng of total RNA was reverse transcribed using iScript™ Reverse Transcription Supermix (Bio-Rad, Hercules, CA, USA), using the manufacturer’s protocol. Quantitative real-time PCR was carried out using Fast SYBR Green Master Mix (Applied Biosystems, Waltham, MA, USA) according to the manufacturer’s instructions. Measurements were performed in triplicate using GAPDH as the reference gene. Real-time PCR was performed using the Biosystems Step One Plus detection system. The following sequences of primers were used: […]

[3] = tested on: panel of MLL-r leukemia and other cancer cells; experiment: Antiproliferation assay (XTT), panel of MLL-r leukemia and other cancer cells; format: cell-based; details: 168 h, MV4;11, Molm-13, NB4 and HL60 cells, 7 days, read-out: Antitumor activity EC50, span over MLL-r leukemia and AML cells
Experimental: (§4) The antitumor activity of selected compounds was evaluated against the proliferation of a panel of MLL-r leukemia and other cancer cells. MV4;11 and Molm-13 leukemia cells contain MLL-AF4 and MLL-AF9 fusion oncogenes, respectively. NB4 and HL60 are AML cells without MLL translocation. Hela (cervical cancer) is a solid tumor cell line. […] The anti-proliferation activity of these compounds against other AML cells (i.e., NB4 and HL60) might be due to their inhibition of SEC-mediated gene expression (e.g., Myc), as observed in our previous studies.
(§5) Proliferation inhibition assays were performed using an XTT assay kit (Biotium, Fremont, CA, USA) following our previous methods. The antiproliferation EC50 values were determined using Prism 5 and the reported results were the mean values of at least three independent experiments. The incubation time for all compounds was 7 days.

[4] = biological target: T2, AF9-DOT1L interaction (Homo sapiens, UniProt P42568); experiment: Pull-down assay of AF9 AHD with DOT1L peptide-coated beads; format: binding
T2 construct: human AF9 AHD domain (475–568); made in house; host or cells: E. coli BL21(DE3)
T2 sequence (P42568 475-568): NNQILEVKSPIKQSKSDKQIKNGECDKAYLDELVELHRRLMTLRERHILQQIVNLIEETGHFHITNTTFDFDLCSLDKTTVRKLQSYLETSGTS
Text: A pull-down assay was used to confirm that the strong inhibitors could disrupt the AF9-DOT1L interaction. Streptavidin agarose beads coated with biotinylated DOT1L peptide were used to pull-down the protein AF9 AHD in the solution, followed by thorough washing, SDS-PAGE (sodium dodecyl sulfate-polyacrylamide gel electrophoresis) and Western blotting to visualize and quantitate the protein. […] This alternative, non-optical method confirmed that compounds 24 and 50 can inhibit the PPI between AF9 and DOT1L.
The pull-down assays were conducted following our previous method. Briefly, the biotinylated DOT1L peptide (0.25 mg/mL) was incubated with streptavidin agarose beads (20 μL) in PBS containing 0.1% Triton X-100 (400 µL) for 3h to yield, after washing, DOT1L-coated beads. MBP-tagged AF9 AHD (0.2 µM, 400 µL) was pre-incubated with a compound for 1 h before adding to the beads. After 6 h incubation at 4 °C, the beads were collected, thoroughly washed, and subjected to SDS-PAGE and analyzed by Western blot using an MBP antibody (#2396, Cell signaling, Danvers, MA, USA).

[5] = tested on: NB4; experiment: Antiproliferation assay (XTT), NB4; format: cell-based; details: Homo sapiens, NB-4, 168 h, 7 days incubation, read-out: Antitumor activity EC50, NB4;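 also: EC50 values in Micromolar not Nanomolar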
Experimental: as §4, §5

[6] = biological target: T2, AF9-DOT1L interaction; experiment: AlphaLisa assay, AF9-DOT1L interaction; format: binding; details: MBP-protein 5 nM, biotinylated peptide 40 nM, 3 independent experiments with standard deviation, read-out: IC50 (μM) against the AF9-DOT1L interaction
In short: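 AlphaLisa proximity assay using MBP-tagged human AF9 AHD (475–568, 5 nM) on anti-MBP acceptor beads and biotinylated DOT1L peptide (40 nM) on streptavidin donor beads, in PBS with 0.5% BSA, pH 7.5. Compound titrated; IC50 from dose-response fits of 3 independent experiments.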

[7] = biological target: T3, AF9-AF4 (Homo sapiens, UniProt P42568); experiment: AlphaLisa assay, AF9-AF4 interaction; format: binding; details: AF9 AHD, AF4 peptide
T3 construct: human AF9 AHD domain (475–568); made in house; host or cells: E. coli BL21(DE3)
T3 sequence (P42568 475-568): T2 sequence (P42568 475-568)
Experimental: as §1, §2, §3

[8] = tested on: MV4;11; experiment: Antiproliferation assay (XTT), MV4;11; format: cell-based; details: Homo sapiens, MV4-11, 168 h, 7 days incubation, read-out: Antitumor activity EC50, MV4;11;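 also: EC50 values in Micromolar not Nanomolar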
Experimental: as §4, §5

[9] = tested on: Molm13; experiment: Antiproliferation assay (XTT), Molm-13; format: cell-based; details: Homo sapiens, MOLM-13, 168 h, 7 days incubation, read-out: Antitumor activity EC50, Molm13;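 also: EC50 values in Micromolar not Nanomolar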
Experimental: as §4, §5

[10] = tested on: HL60; experiment: Antiproliferation assay (XTT), HL60; format: cell-based; details: Homo sapiens, HL-60, 168 h, 7 days incubation, read-out: Antitumor activity EC50, HL60;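 also: EC50 values in Micromolar not Nanomolar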
Experimental: as §4, §5

[11] = tested on: Hela; experiment: Antiproliferation assay (XTT), Hela; format: cell-based; details: Homo sapiens, HeLa, 168 h, 7 days incubation, read-out: Antitumor activity EC50, Hela
Experimental: as §4, §5

[12] = biological target: T4, MBP-tagged ENL AHD domain (489–559) (human, UniProt Q03111 489-559); experiment: AlphaScreen or HTRF; AlphaLisa (Perkin-Elmer anti-MBP kit): MBP-protein (5 nM) on anti-MBP acceptor beads, biotinylated peptide (40 nM) on streptavidin donor beads, increasing concentrations of a small-molecule compound, 25 µL PBS with 0.5% BSA, pH 7.5, 384-well plates; details: both partners purified
T4 construct: ENL (MLLT1), human, C-terminal AHD domain, residues 489-559; cDNA synthesized by Genscript and inserted into pMAL c5X; Expressed from pMAL c5X; the MBP tag is used for capture on anti-MBP acceptor beads; also called MBP-protein; source: E. coli BL21(DE3), purified (amylose resin, size exclusion Superdex 200); not shown: MBP, N-terminal, kept
T4 sequence (looked up): T1 sequence (Q03111 489-559)

[13] = biological target: T5, MBP-tagged AF9 AHD domain (475–568) (human, UniProt P42568 475-568); experiment: as above; details: both partners purified
T5 construct: AF9 (MLLT3), human, C-terminal AHD domain, residues 475-568; cDNA synthesized by Genscript and inserted into pMAL c5X; Expressed from pMAL c5X; the MBP tag is used for capture on anti-MBP acceptor beads and for detection by an MBP antibody; also called MBP-protein; source: E. coli BL21(DE3), purified (amylose resin, size exclusion Superdex 200); not shown: MBP, N-terminal, kept
T5 sequence (looked up): T2 sequence (P42568 475-568)

- IC50 [1]: 3.4 ± 0.4 µM
- EC50 [3]: 5.1 to 9.4 µM
- remaining activity at 10 µM ([4]; Western blot, compound 10 μM, read-out: AF9 AHD % Control): 27%
- remaining activity at 50 µM ([4]; Western blot, compound 50 μM, read-out: AF9 AHD % Control): 29%
- IC50 [6]: 2.5 ± 0.2 µM
- IC50 [7]: 2.5 ± 0.3 µM
- EC50 [8]: 8.2 ± 1.2 µM
- EC50 [9]: 5.1 ± 0.2 µM
- EC50 [10]: 9 ± 0.9 µM
- EC50 [11]: 25 ± 2.5 µM
Molecule: Cl.O=C(NCC1CCNCC1)c1cc2cc(-c3ccc(N4CCCCC4)cc3)ccc2s1 [Compound 50, 5-(4-(Piperidin-1-yl)phenyl)-N-(piperidin-4-ylmethyl)-benzo[b]thiophene-2-carboxamide hydrochloride]
- Expression of MLL target genes HoxA9, Meis1 and Myc (in words) [2]: inhibited expression; also recorded: able to reduce the expression
- Effect on AF9 AHD bound to DOT1L peptide-coated beads (in words) ([4]; up to 50 µM): significantly reduced the amounts of AF9 AHD; also recorded: dose-dependently reduce AF9 AHD
- EC50 [5]: 9.4 ± 1.2 µM

- binding result [12]: binds
- binding result [13]: binds
B1: AF4 peptide (Biotin-AHX-QSLMVKITLDLLSRIPQPPGK) (peptide)
peptide: {Biotin-Ahx}-QSLMVKITLDLLSRIPQPPGK
notes: stretch of transcription cofactor AF4 (AFF1) with an LxVxIxLxxV/L motif; also called biotinylated AF4 peptide; source: synthetic peptide, bought: Genscript

- binding result [13]: binds
B2: DOT1L peptide (Biotin-AHX-NKLPVSIPLASVVLPSRAERARST) (peptide)
peptide: {Biotin-Ahx}-NKLPVSIPLASVVLPSRAERARST
notes: stretch of histone H3K79 methyltransferase DOT1L with an LxVxIxLxxV/L motif; also called biotinylated DOT1L peptide; source: synthetic peptide, bought: Genscript
